Assay results as given in article PMC9323733, “Efficacy of Vafidemstat in Experimental Autoimmune Encephalomyelitis Highlights the KDM1A/RCOR1/HDAC Epigenetic Axis in Multiple Sclerosis” (Pharmaceutics, 2022).

Legend:
[1] = biological target: T1, human S1P1 receptor (Homo sapiens, UniProt P21453); test: CellKey impedance assay in CHO cells, agonistic and antagonistic effect; type: cell-based; conditions: GPCR based impedance assays
T1 construct: host or cells: CHO cells
Description: Cell on impedance modulation, using the CellKey (Cellular Dielectric Spectroscopy) detection method (CellKey 96, MDS Sciex, Concord, ON, Canada) at Eurofins Pharma Discovery Services (Celle-Lévescault, France). CHO cells were seeded onto a 96-well plate at 15.104 cells/well in HBSS buffer (Invitrogen), 20 mM HEPES (Invitrogen), 10% FCS (Invitrogen), and 0.1% BSA (Sigma), allowed to equilibrate for 60 min at 28 °C. DMSO solutions of compounds were diluted in HBSS and 0.1% BSA. Plates were placed onto the system, and measurements were made at a temperature of 28 °C. To measure the agonistic effect, compounds and controls in duplicate were added simultaneously to all of the wells using an integrated fluidics system. Impedance measurements were monitored for 10 min after ligand addition. […] To measure the antagonistic effect, compounds and controls in duplicate were pre-incubated for 15 min before the addition of the reference agonist S1P at 0.01 µM (EC80). Impedance measurements were monitored for 10 min.
Evaluation of the agonistic (a) and antagonist (b) effect of the compounds on the human S1P1 receptor. […] Data are expressed as percentage of control (no compound) activity, n = 2. TSA was used as a control; (d) Cellular HDAC activity assay. […] SAHA was used as a control. Ponceau S staining was used as loading control. Veh: Vehicle. […] TSA: Trichostatin A. SAHA: suberoylanilide hydroxamic acid.

[2] = tested on: SJL/J mice infected with TMEV; test: Theiler's murine encephalomyelitis virus (TMEV) model; type: in vivo, mouse
Description: Susceptible SJL/J mice (6 weeks old), previously anesthetized with isoflurane, were inoculated in the cerebral parenchyma with 2 × 10^6 plaque forming units (pfu) of the Daniel’s strain of TMEV, diluted in 30 μL of Dulbecco’s Modified Eagle Medium (DMEM) supplemented with 5% fetal bovine serum (FBS). The injection takes place in the right hemisphere of the cerebral cortex using a Hamilton syringe coupled to a pipette tip in such a way that it allows for an exposure of the needle of about 2–3 mm; thus, the virus is always injected at the same depth. Sham animals are subjected to the same protocol, but they only received 30 µL of DMEM supplemented with 5% fetal bovine serum. […] Control mice were treated with vehicle [2% v/v Tween-80 + 98% HPβCD (13% w/v)] following the same administration regime (Figure 4a). The animals were weighed every week from the onset of infection and clinical signs were evaluated using the criterion described by Moses Rodriguez (Mayo Clinic), source of the Daniel’s strain of TMEV to assess the severity of the disease by the general appearance: Score 1 = Shaggy and scruffy hair; 2 = scruffy appearance and hunched back; 3 = no spontaneous movement, reduced induced activity; and Gait: Score 1 = mild ataxia with inconsistent waddling gait; 2 = moderate ataxia with consistent waddling gait; 3 = severe ataxia with reduced righting response; 4 = spastic paresis of hind legs. The score of the animals and motor behavior were analyzed by trained observers blind to treatment and experimental groups.
The screening for locomotor activity was performed by analyzing spontaneous motor activity using an Activity Cage (Activity Monitor System Omnitech Electronics, Inc., Columbus, OH, USA) and by evaluating the mice performance in the Rotarod test. The activity cage consists of a four-compartment metacrylate cage, surrounded by sensors in such a way that it registers the movements of the mouse in both vertical and horizontal position and ambulation. The test consists of introducing the mice into two compartments of the cage placed diagonally so as not to interfere with the sensors of the other mouse. During two five-minute cycles (0–5 min, 5–10 min), horizontal activity (HACTV) or vertical activity (VACTV) are recorded. The first cycle evaluates the spontaneous activity in a new environment and the second measures the activity of the animal once habituated to the new environment. This task was performed on days 60, 70, 78, and 86 post-infection. The rotarod (Ugo Basile, Milan, Italia) consists of a rotating cylinder (roll) suspended above a cage floor turning at a constant speed or acceleration. The system is completed with a stopwatch for each compartment that stops when the mouse falls from the roll to a lever on the bottom of the device. One week prior to the test, mice were trained and familiarized with the test for one minute at a constant speed. The length of time that mice stay on the rotating roll is a measure of their balance and motor coordination. The test consists of measuring the time that mice remain on the roll with constant acceleration for a maximum time of five minutes. Mice that developed strategies to stay on the roll (p.e. seeking support on the wall) were excluded from evaluation. The rotarod test was performed on day 72, 78, and 86 post-infection.
Cervical and lumbar spinal cord segments of spinal cords obtained from EAE mice sacrificed on day 17 or 26 post-immunization were divided and processed for inclusion and sectioning in paraffin and for inclusion in an optimal cutting temperature (OCT) compound and future cryosectioning of the samples. Spinal cord segments were immediately fixed with buffered 10% formalin for 48 h, dehydrated and included in paraffin using standard techniques. […]

[3] = tested on: lymphocytes; test: GLP toxicological studies, lymphocyte count, dogs; type: in vivo, Beagle dogs; conditions: mean ± SD
From the text: T r eat m e nt N Ly m p h o c y te s Equivalent m ou se d o se
( mg /k g p. o. ga va g e) (109/ L ) ( mg /k g p.o ga va ge)
6 m ont h s W i sta r r at s
9 m ont h s Be ag le d og s
Eff ec t of t r ea t me nt wi t h O RY-2 00 1 a d mi ni st e r e d by or al ga va ge o n l y m ph oc yt e s ob se r ve d i n G LP
t ox i c ol ogi c a l st udi e s i n r at a nd do g. A ni ma l s we r e t re a t e d or al l y (fi ve c o ns e c ut i ve da ys/ we e k) by ga va ge
28 da ys or 6 mo nt hs ( ra t s) a nd 28 da ys or 9 mo nt hs (dogs). Data re prese nt de me a n ± S D. T he e q ui va l e n t
dos e i n m o use i s i n di c at e d. 1-wa y A N OV A a n d D u n ne t t’ s M ul ti pl e C o m pa ri so n t e st wa s use d.

T1 sequence (P21453 whole entry): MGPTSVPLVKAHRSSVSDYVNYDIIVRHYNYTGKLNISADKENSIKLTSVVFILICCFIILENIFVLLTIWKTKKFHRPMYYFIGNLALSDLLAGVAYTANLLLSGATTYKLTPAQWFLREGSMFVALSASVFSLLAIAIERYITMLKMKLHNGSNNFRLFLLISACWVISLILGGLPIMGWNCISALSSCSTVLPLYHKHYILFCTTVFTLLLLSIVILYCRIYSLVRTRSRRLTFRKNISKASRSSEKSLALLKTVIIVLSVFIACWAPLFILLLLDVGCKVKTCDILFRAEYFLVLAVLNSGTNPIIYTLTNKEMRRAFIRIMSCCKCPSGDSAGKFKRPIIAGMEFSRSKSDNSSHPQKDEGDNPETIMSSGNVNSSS

Nc1nnc(CN[C@@H]2C[C@H]2c2ccc(OCc3ccccc3)cc2)o1 [ORY-2001]
agonist and antagonist activity at S1P1 receptor [1]: neither ORY-2001 nor ORY-LSD1 (at concentrations well above those needed to fully inhibit KDM1A) showed any activity | agonist and antagonist activity at S1P1 receptor ([1]; listed as vafidemstat): does not target the S1PR | CD4 and CD8 lymphocytes in spinal cord parenchyma ([2]; p.o. 0.3 and 1.0 mg/kg): decreased the accumulation of CD4 and CD8 lymphocytes into the parenchyma | body weight ([2]; p.o. 0.3 and 1.0 mg/kg): did not produce any body weight changes | horizontal activity (activity cage) ([2]; p.o. 0.3 and 1.0 mg/kg): significantly improved the motor activity in the horizontal activity | infiltration of immune cells into the spinal cord ([2]; p.o. 0.3 and 1.0 mg/kg): diminished after ORY-2001 treatment | other motor deficits (vertical activity, rotarod) ([2]; p.o. 0.3 and 1.0 mg/kg): partially reduced other motor deficits | clinical score ([2]; p.o. 0.3 and 1.0 mg/kg, days 72-76 and 79-83 post-infection): reduced the clinical score | astroglial activation ([2]; spinal cord): partially limited astroglial activation | axon integrity ([2]; spinal cord): increased axon integrity | microglial activation (AIF-1 positive cells) ([2]; spinal cord): significantly reduced microglial activation | Lymphocytes ([3]; 9 months Beagle dogs, 0.025 mg/kg p.o. gavage (equivalent mouse dose 0.15)): 2.10 ± 0.60 109/L | Lymphocytes ([3]; 9 months Beagle dogs, 0.075 mg/kg p.o. gavage (equivalent mouse dose 0.45)): 2.90 ± 0.30 109/L | Lymphocytes ([3]; 9 months Beagle dogs, 0.150 mg/kg p.o. gavage (equivalent mouse dose 0.90)): 2.75 ± 1.04 109/L | Lymphocytes ([3]; 28 d Beagle dogs, 0.025 mg/kg p.o. gavage (equivalent mouse dose 0.15)): 3.31 ± 0.41 109/L | Lymphocytes ([3]; 28 d Beagle dogs, 0.075 mg/kg p.o. gavage (equivalent mouse dose 0.45)): 2.88 ± 1.02 109/L | Lymphocytes ([3]; 28 d Beagle dogs, 0.225 mg/kg p.o. gavage (equivalent mouse dose 1.35)): 4.33 ± 1.08 109/L
